# Test results published in patent publication US8492559B2, “Substituted indole compounds” (Gruenenthal GmbH, priority 2009, dated 2013).
# Target: T1, human B1R receptor (hB1R) (Homo sapiens, UniProt P46663)
# T1 construct: expressed in transfected cells; host or cells: CHO K1 cells
# T1 sequence (P46663 1-353): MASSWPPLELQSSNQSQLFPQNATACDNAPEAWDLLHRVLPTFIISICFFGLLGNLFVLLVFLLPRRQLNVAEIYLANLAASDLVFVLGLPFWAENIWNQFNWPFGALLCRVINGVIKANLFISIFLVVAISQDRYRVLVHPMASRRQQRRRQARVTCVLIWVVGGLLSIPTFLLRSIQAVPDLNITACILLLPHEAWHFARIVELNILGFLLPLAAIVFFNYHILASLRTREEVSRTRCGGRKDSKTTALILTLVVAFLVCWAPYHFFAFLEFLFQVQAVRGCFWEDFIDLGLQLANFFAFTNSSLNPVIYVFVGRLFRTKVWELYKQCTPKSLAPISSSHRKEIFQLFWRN
# Test: Functional investigation on the bradykinin 1 receptor (B1R), FLIPR Ca2+ assay, hB1R cells
# Format: cell-based
# Conditions: CHO-K1, 10 μM test substance; CHO K1 cells with human B1R; agonist Lys-Des-Arg9 bradykinin; % of maximum achievable inhibition; read-out: B1R antagonism, human [10 μM] % inhibition
# Experimental: The agonistic or antagonistic action of substances can be quantified on the bradykinin 1 receptor (B1R) of the human and rat species with ectopically expressing cell lines (CHO K1 cells) and with the aid of a Ca^2+-sensitive dye (Fluo-4) using a fluorescent imaging plate reader (FLIPR). The indication in % activation is based on the Ca^2+ signal after addition of Lys-Des-Arg^9 bradykinin (0.5 nM) or Des-Arg^9 bradykinin (100 nM). Antagonists lead to a suppression of the Ca^2+ influx following administration of the agonist. The % inhibition in comparison with the maximum achievable inhibition is indicated.
# 1. Functional Investigation on the Bradykinin 1 Receptor (B1R)
# The agonistic or antagonistic action of substances can be determined on the bradykinin 1 receptor (B1R) of the human and rat species with the following assay. According to this assay, the Ca^2+ inflow through the channel is quantified with the aid of a Ca^2+-sensitive dye (Fluo-4 type, Molecular Probes Europe BV, Leiden, Netherlands) in a fluorescent imaging plate reader (FLIPR, Molecular Devices, Sunnyvale, USA).
# Chinese hamster ovary cells (CHO K1 cells) which are stably transfected with the human B1R gene (hB1R cells) or the B1R gene of the rat (rB1R cells) are used. For functional investigations these cells are plated-out onto black 96-well plates with a clear base (BD Biosciences, Heidelberg, Germany or Greiner, Frickenhausen, Germany) in a density of 20,000-35,000 cells/well. Overnight the cells are incubated at 37° C. and 5% CO2 in culture medium (hB1R cells: Ham's Nutrient Mixture F12, Gibco Invitrogen GmbH, Karlsruhe, Germany or DMEM, Sigma-Aldrich, Taufkirchen, Germany; rB1R cells: D-MEM/F12, Gibco Invitrogen, Karlsruhe, Germany) with 10 vol. % FBS (foetal bovine serum, Gibco Invitrogen GmbH, Karlsruhe, Germany or PAN Biotech GmbH, Aidenbach, Germany).
# On the following day the cells are loaded with 2.13 μM Fluo-4 (Molecular Probes Europe BV, Leiden, Netherlands) in HBSS buffer (Hank's buffered saline solution, Gibco Invitrogen GmbH, Karlsruhe, Germany) with 2.5 mM probenecid (Sigma-Aldrich, Taufkirchen, Germany) and 10 mM HEPES (Sigma-Aldrich, Taufkirchen, Germany) for 60 min at 37° C. The plates are subsequently washed twice with HBSS buffer, and HBSS buffer which additionally contains 0.1% BSA (bovine serum albumin; Sigma-Aldrich, Taufkirchen, Germany), 5.6 mM glucose and 0.05% gelatine (Merck KGaA, Darmstadt, Germany) is added. After a further incubation of 20 minutes at room temperature, the plates are inserted into the FLIPR for Ca^2+ measurement.
# Alternatively they are washed with buffer A (15 mM HEPES, 80 mM NaCl, 5 mM KCl, 1.2 mM CaCl2, 0.7 mM MgSO4, 2 g/l glucose, 2.5 mM probenecid) and loaded with buffer A with added 2.5 μM Fluo-4 and 0.025% Pluronic F127 (Sigma-Aldrich, Taufkirchen, Germany). The cells are then washed twice with buffer A and incubated for 30 minutes with buffer A, which additionally contains 0.05% BSA and 0.05% gelatine, at room temperature and then used for Ca^2+ measurement in the FLIPR. The Ca^2+-dependent fluorescence is measured here before and after addition of substances (λex=488 nm, λem=540 nm). The quantification is performed by measuring the highest fluorescence intensity (FC, fluorescence counts) over time.
# The FLIPR protocol comprises two additions of substance. Test substances (10 μM) are first pipetted onto the cells and the Ca^2+ inflow is compared with the control (hB1R: Lys-Des-Arg^9 bradykinin>=50 nM; rB1R: Des-Arg^9 bradykinin 10 μM). The value in % activation based on the Ca^2+ signal after addition of Lys-Des-Arg^9 bradykinin (>=50 nM) or Des-Arg^9 bradykinin (10 μM) is obtained therefrom. After incubation for 10-20 minutes, Lys-Des-Arg^9 bradykinin (hB1R) or Des-Arg^9 bradykinin (rB1R) is applied in the EC80 concentration and the inflow of Ca^2+ is likewise determined.
# Antagonists lead to a suppression of the Ca^2+ inflow. The % inhibition in comparison with the maximum achievable inhibition is calculated. […]
smiles,measurement,value
"COc1cc(C)c(S(=O)(=O)Nc2cccc3ccn(CC(=O)N4CCC5(CCN(c6ccncc6)C5)C4)c23)c(C)c1 (stereo not shown) [Compound G-17, 4-Methoxy-2,6-dimethyl-N-(1-(2-oxo-2-(7-(pyridin-4-yl)-2,7-diazaspiro[4.4]nonan-2-yl)ethyl)-1H-indol-7-yl)benzenesulfonic acid amide]",inhibition at 10 µM,100%
